Test results from patent US20070117770A1, “Human ribosomal DNA (rDNA) and ribosomal RNA (rRNA) nucleic acids and uses thereof” (Cylene Pharmaceuticals, Inc., priority 2005, published 2007).

Legend:
Assay in all cases: Protein kinase inhibition assay
Type in all cases: biochemical
CHK1(h) = CHK1(h) (Homo sapiens, UniProt O14757); conditions: read-out: percent residual activity of CHK1(h)
Method: (§1) Certain compounds were tested for activity in protein kinase inhibition assays. All substrates were dissolved and diluted to working stocks in de-ionized water, apart from histone H1 (10× working stock in 20 mM MOPS pH 7.0), PDKtide (10× working stock in 50 mM Tris pH 7.0) ATF2 (which is typically stored at a 20× working stock in 50 mM Tris pH 7.5, 150 mM NaCl, 0.1 mM EGTA, 0.03% Brij-35, 50% glycerol, 1 mM benzamidine, 0.2 mM PMSF and 0.1% R-mercaptoethanol), KKLNRTLSFAEPG (SEQ ID NO:203) and RRRLSFAEPG (SEQ ID NO:204) (50 mM HEPES pH 7.4) and GGEEEEYFELVKKKK (SEQ ID NO:205) (20 mM MOPS pH 7.0). All kinases were pre-diluted to a 10× working concentration prior to addition into the assay. The composition of the dilution buffer for each kinase is detailed below.
In a final reaction volume of 25 μl, CHK1 (h) (5-10 mU) is incubated with 8 mM MOPS pH 7.0, 0.2 mM EDTA, 200 μM […] (SEQ ID NO:213), 10 mM MgAcetate and [gamma-33P-ATP] (specific activity approx. 500 cpm/pmol, concentration as required). The reaction is initiated by the addition of the MgATP mix. After incubation for 40 minutes at room temperature, the reaction is stopped by the addition of 5 μl of a 3% phosphoric acid solution. 10 μl of the reaction is then spotted onto a P30 filtermat and washed three times for 5 minutes in 75 mM phosphoric acid and once in methanol prior to drying and scintillation counting.

Fgr(h) = Fgr(h) (Homo sapiens, UniProt P09769); conditions: read-out: percent residual activity of Fgr(h)
Fgr(h), sequence (P09769 whole entry): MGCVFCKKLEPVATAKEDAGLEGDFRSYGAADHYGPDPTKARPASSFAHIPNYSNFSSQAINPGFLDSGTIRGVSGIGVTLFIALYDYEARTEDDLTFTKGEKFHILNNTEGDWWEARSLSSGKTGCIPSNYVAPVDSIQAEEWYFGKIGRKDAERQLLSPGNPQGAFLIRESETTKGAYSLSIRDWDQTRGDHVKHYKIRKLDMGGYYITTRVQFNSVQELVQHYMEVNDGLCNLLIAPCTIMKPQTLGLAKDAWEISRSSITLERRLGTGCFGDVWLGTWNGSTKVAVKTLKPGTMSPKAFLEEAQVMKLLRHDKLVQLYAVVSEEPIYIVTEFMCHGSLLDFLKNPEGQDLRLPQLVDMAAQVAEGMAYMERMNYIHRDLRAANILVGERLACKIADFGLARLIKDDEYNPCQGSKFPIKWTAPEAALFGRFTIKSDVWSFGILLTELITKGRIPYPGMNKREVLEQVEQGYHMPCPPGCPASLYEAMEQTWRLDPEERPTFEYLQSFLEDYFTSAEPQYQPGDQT
Method: as §1
In a final reaction volume of 25 μl, Fgr (h) (5-10 mU) is incubated with 8 mM MOPS pH 7.0, 0.2 mM EDTA, 0.1 mg/ml poly(Glu, Tyr) 4:1, 10 mM MgAcetate and [gamma-33P-ATP] (specific activity approx. 500 cpm/pmol, concentration as required). The reaction is initiated by the addition of the MgATP mix. After incubation for 40 minutes at room temperature, the reaction is stopped by the addition of 5 μl of a 3% phosphoric acid solution. 10 μl of the reaction is then spotted onto a Filtermat A and washed three times for 5 minutes in 75 mM phosphoric acid and once in methanol prior to drying and scintillation counting.

IKKα(h) = IKKα(h) (Homo sapiens, UniProt O15111); conditions: read-out: percent residual activity of IKKα(h)
IKKα(h), sequence (O15111 whole entry): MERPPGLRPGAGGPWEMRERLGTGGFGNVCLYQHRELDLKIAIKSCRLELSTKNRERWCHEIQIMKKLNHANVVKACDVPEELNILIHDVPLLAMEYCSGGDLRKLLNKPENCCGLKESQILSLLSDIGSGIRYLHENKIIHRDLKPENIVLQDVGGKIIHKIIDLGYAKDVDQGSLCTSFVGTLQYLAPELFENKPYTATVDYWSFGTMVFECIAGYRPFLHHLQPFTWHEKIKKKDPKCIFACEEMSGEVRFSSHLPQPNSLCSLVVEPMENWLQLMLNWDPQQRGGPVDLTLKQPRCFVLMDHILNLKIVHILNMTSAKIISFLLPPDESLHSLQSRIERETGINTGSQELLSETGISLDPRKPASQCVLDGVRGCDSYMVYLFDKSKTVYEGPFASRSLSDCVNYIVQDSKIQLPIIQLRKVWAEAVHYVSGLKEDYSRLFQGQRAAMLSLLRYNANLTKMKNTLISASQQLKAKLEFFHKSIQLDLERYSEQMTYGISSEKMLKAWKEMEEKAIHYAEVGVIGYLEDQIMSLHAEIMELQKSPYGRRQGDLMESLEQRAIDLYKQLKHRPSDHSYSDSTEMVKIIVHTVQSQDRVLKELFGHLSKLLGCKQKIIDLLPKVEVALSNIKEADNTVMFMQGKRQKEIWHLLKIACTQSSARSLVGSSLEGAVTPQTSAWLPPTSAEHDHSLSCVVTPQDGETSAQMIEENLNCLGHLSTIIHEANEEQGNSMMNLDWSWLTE
Method: as §1
(§2) In a final reaction volume of 25 μl, IKKa (h) (5-10 mU) is incubated with 8 mM MOPS pH 7.0, 0.2 mM EDTA, 200 μM peptide, 10 mM MgAcetate and [gamma-33P-ATP] (specific activity approx. 500 cpm/pmol, concentration as required). The reaction is initiated by the addition of the MgATP mix. After incubation for 40 minutes at room temperature, the reaction is stopped by the addition of 5 μl of a 3% phosphoric acid solution. 10 μl of the reaction is then spotted onto a P30 filtermat and washed three times for 5 minutes in 75 mM phosphoric acid and once in methanol prior to drying and scintillation counting.

ASK1(h) = ASK1(h) (Homo sapiens, UniProt Q99683); conditions: read-out: percent residual activity of ASK1(h)
ASK1(h), sequence (Q99683 whole entry): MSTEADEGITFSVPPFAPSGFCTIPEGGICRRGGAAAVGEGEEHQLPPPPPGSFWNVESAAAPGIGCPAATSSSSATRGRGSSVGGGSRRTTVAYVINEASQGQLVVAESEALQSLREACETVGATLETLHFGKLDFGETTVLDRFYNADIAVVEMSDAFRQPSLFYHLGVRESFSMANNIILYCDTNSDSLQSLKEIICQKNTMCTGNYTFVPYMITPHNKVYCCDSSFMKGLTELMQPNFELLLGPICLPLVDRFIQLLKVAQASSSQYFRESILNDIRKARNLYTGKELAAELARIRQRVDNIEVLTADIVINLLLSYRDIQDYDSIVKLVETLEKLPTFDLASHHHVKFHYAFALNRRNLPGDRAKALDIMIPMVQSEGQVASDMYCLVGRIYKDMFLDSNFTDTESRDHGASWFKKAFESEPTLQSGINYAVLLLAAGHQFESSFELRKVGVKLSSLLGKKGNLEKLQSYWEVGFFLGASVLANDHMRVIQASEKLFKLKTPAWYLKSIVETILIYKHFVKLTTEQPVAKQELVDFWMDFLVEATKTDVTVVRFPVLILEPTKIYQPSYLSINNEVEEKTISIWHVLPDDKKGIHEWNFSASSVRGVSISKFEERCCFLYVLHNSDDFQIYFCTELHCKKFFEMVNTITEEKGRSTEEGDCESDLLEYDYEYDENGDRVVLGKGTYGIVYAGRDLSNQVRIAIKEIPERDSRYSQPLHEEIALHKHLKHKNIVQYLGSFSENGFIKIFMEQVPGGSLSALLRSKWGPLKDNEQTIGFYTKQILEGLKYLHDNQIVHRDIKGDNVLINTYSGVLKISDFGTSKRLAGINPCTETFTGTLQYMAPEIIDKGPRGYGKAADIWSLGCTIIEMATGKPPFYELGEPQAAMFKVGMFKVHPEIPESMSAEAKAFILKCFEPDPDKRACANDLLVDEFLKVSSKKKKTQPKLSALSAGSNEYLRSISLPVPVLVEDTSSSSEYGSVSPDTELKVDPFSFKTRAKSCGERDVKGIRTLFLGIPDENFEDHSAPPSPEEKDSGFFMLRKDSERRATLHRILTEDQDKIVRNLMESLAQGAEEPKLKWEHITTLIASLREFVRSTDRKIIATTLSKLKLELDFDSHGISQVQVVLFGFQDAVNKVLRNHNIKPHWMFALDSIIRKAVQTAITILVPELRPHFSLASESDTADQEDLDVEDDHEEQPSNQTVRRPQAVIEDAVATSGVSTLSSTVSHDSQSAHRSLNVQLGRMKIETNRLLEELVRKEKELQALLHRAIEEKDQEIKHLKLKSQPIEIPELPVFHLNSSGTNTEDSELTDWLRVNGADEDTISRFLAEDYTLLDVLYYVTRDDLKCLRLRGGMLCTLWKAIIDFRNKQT
Method: as §1
as §2, with “ASK1” for “IKKa”, “0.33 mg/ml myelin basic protein,” for “200 μM peptide,”

PKBγ(h) = PKBγ(h) (Homo sapiens, UniProt Q9Y243); conditions: read-out: percent residual activity of PKBγ(h)
PKBγ(h), sequence (Q9Y243 whole entry): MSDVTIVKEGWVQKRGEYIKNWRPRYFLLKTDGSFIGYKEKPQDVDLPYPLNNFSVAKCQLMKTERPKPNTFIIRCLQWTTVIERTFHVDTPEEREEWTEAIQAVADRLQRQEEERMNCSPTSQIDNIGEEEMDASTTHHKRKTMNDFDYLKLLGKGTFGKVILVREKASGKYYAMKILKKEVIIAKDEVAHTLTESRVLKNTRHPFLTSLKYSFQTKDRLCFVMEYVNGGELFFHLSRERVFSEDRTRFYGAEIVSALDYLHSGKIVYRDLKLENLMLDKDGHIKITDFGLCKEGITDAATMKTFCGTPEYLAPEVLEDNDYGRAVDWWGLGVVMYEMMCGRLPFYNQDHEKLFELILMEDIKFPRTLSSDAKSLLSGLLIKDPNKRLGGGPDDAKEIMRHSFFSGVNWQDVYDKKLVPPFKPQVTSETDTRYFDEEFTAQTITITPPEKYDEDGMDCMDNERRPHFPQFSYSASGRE
Method: as §1
In a final reaction volume of 25 μl, PKBγ (h) (5-10 mU) is incubated with 8 mM MOPS pH 7.0, 0.2 mM EDTA, 30 μM GRPRTSSFAEGKK (SEQ ID NO:232), 10 mM MgAcetate and [gamma-33P-ATP] (specific activity approx. 500 cpm/pmol, concentration as required). The reaction is initiated by the addition of the MgATP mix. After incubation for 40 minutes at room temperature, the reaction is stopped by the addition of 5 μl of a 3% phosphoric acid solution. 10 μl of the reaction is then spotted onto a P30 filtermat and washed three times for 5 minutes in 75 mM phosphoric acid and once in methanol prior to drying and scintillation counting.

CSK(h) = CSK(h) (Homo sapiens, UniProt P41240); conditions: read-out: percent residual activity of CSK(h)
Method: as §1
In a final reaction volume of 25 μl, CSK (h) (5-10 mU) is incubated with 50 mM Tris pH 7.5, 0.1 mM EGTA, 0.1 mM Na3VO4, 0.1% R-mercaptoethanol, 0.1 mg/ml poly(Glu, Tyr) 4:1, 10 mM MnCl2, 10 mM MgAcetate and [gamma-33P-ATP] (specific activity approx. 500 cpm/pmol, concentration as required). The reaction is initiated by the addition of the MgATP mix. After incubation for 40 minutes at room temperature, the reaction is stopped by the addition of 5 μl of a 3% phosphoric acid solution. […]

CHK1(h), sequence (O14757 whole entry): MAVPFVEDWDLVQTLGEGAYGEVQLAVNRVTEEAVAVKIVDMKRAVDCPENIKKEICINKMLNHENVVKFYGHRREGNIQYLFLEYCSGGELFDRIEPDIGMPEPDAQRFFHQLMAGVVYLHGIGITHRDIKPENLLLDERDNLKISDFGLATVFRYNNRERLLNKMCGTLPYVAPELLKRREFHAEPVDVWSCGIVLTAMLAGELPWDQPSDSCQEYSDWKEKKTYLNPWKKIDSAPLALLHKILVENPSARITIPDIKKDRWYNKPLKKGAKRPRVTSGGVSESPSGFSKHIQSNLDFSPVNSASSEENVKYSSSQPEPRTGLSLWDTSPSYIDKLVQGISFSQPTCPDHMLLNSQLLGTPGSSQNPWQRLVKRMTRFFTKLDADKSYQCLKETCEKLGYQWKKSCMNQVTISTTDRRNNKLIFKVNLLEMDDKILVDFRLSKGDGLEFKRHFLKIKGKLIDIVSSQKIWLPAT

Row | remaining activity at 2.5 µM (CHK1(h)) [%] | remaining activity at 2.5 µM (Fgr(h)) [%] | remaining activity at 2.5 µM (IKKα(h)) [%] | remaining activity at 2.5 µM (ASK1(h)) [%] | remaining activity at 2.5 µM (PKBγ(h)) [%] | remaining activity at 2.5 µM (CSK(h)) [%] | SMILES
1 | 106 | 98 | 118 | 110 | 95 | 92 | CC(=O)N1CCN(c2ccc3c(=O)c(C(=O)NCCN4CCCC4)c4n(C)c5ccccc5n4c3n2)CC1 [Compound B-1]
2 | 95 | 78 | 68 | 98 | 64 | 116 | CN1CCCC1CCNC(=O)c1cn2c3c(c(N4CCC(c5cnccn5)C4)c(F)cc3c1=O)Oc1cc3ccccc3cc1-2 (stereo not drawn) [Compound A-1]
